Values of other authors, collected in paper PMC2737817 (Bioorganic & medicinal chemistry letters, 2009).

Legend:
GPI/LMMP = settings: read-out: Functional Bioactivity GPI (IC50); ± S.E.M.; ref [42]; SEM
MVD = settings: read-out: Functional Bioactivity MVD (IC50); ± S.E.M.; ref [42]; SEM

Substance | IC50 (GPI/LMMP) [nM] | IC50 (MVD) [nM]
Tyr-Pro-Phe-Phe-NH2 [EM-2] | 15 ± 2 | –
Tyr-Pro-Trp-Phe-NH2 [EM-1] | 28 ± 3 | 1710 ± 110
